The text below walks through data of patent US20180028478A1, “ANTIVIRAL COMPOSITIONS DIRECTED AGAINST THE NUCLEOPROTEIN OF INFLUENZA VIRUSES” (priority 2011, published 2018).

“And” between values parts separate entries of the source, which are not always exact repeats. Equal values may be shown once. Read-outs that look alike come from different tables or passages of the source.

In one assay the test system is Influenza A/WSN/33 virus. As to the kind of experiment: microbe, parasite or virus in culture. It is filed as cell-based, Influenza A/WSN/33 (H1N1). Particulars: for IC50: Influenza A virus, WSN, MDCK, read-out: IC50 decrease × 10 viral titer/control (n = 2).
The test system of a further assay is Influenza A/PR8/34 virus. Also noted: species or system Balb/C mice. Particulars: mouse, in vivo.
The subject of another assay is H3N2 virus A/Udorn. Particulars: MTT 24 h; A/Udorn MOI 10^−1; 100 μM.

With `COc1ccc(-c2nnc(S)n2N=Cc2ccc(C(=O)O)cc2)cc1` [compound 88], the “IC10 decrease × 10 viral titer/control (n = 2)” value in the assay on Influenza A/WSN/33 virus is “No effect”. The “Viral titer Pfu/ml MDCK cells” value in the assay on Influenza A/WSN/33 virus (5 μM) was 1-4 × 10^7 Pfu/ml.
As to `O=C(O)c1ccc(C=Nn2c(S)nnc2-c2ccc(Cl)cc2Cl)cc1` [compound 59], in the assay on Influenza A/WSN/33 virus, the “IC10 decrease × 10 viral titer/control (n = 2)” value is ~30 μM. Moreover, the “Viral titer Pfu/ml MDCK cells” value in the assay on Influenza A/WSN/33 virus (50 μM) is recorded as 5.5 ± 2.5 × 10^5 Pfu/ml. The IC50 with Influenza A/WSN/33 virus (24 h) is ~5 µM.
For the molecule `CCOC(=O)C1=C[C@@H](OC(CC)CC)[C@H](NC(C)=O)[C@@H](N)C1` [Tamiflu, oseltamivir], the “decrease factor of viral titer in lungs vs untreated infected controls” value in the assay on Influenza A/PR8/34 virus is on record as ~100 factor. For the same molecule, the “viral titer decrease, Naproxen vs Tamiflu” value in the assay with Influenza A/WSN/33 virus is listed as “viral titer decreases similarly”.
With `Cc1ccc(-c2nnc(S)n2/N=C/c2ccc(C(=O)O)cc2)cc1` [compound 72], in the assay with Influenza A/WSN/33 virus, the “IC10 decrease × 10 viral titer/control (n = 2)” value was ~20 μM and ~35 μM. Besides, the “Viral titer Pfu/ml MDCK cells” value in the assay on Influenza A/WSN/33 virus (50 μM) was 7.6 ± 4.0 × 10^5 Pfu/ml and 3.9 ± 1.6 × 10^6 Pfu/ml. Also, the IC50 with Influenza A/WSN/33 virus (24 h) is ~5 µM.
In the case of `COc1ccc2cc(C(C)C(=O)O)ccc2c1` (stereo not shown) [Naproxen], in the assay with H1N1 WSN strain, the “infectious outbreaks in the cell layer and dead cells” value was “reduced the number and the size of the infectious outbreaks”; the localisation of nucleoprotein entry is “has not modified the localisation of nucleoprotein”. In the assay with H3N2 virus A/Udorn, this molecule gave a Protection % of 85 ± 2%. The weight loss in the assay on Influenza A/PR8/34 virus is listed as 19%. Moreover, the “decrease factor of viral titer in lungs vs untreated infected controls” value in the assay on Influenza A/PR8/34 virus (ip) is ~42 factor. Besides, in the assay on Influenza A/WSN/33 virus, the “IC10 decrease × 10 viral titer/control (n = 2)” value is given as ~50 μM; the “decrease of viral titers with concentration” value was “the greater the concentration in Naproxen, the quicker the decrease of the viral titers”; the “viral titer decrease, Naproxen vs Tamiflu” value is “viral titer decreases similarly”. Moreover, the IC50 in the assay with Influenza A/WSN/33 virus (48 h) was ~10 µM.
